How the values were obtained:
[1] = Hydrolysis in simulated intestinal fluid at 37° C.; conditions: mixture in simulated intestinal fluid (37° C., pH 6.8, pancreatine)
[2] = Hydrolysis in human blood serum at 37° C.; conditions: human blood serum (37° C.)
[3] = target: μ-opioid receptor (Homo sapiens (Human), UniProt P35372); test: [35S]GTPγS μ-opioid receptor functional assay; format: biochemical; conditions: for functional profile at μ-opioid receptor (in words): conclusion from Table 23

COc1ccc2c3c1OC1C(OC(C)=O)=CC[C@@]4(OC(C)=O)[C@@H](C2)N(C)CC[C@]314 (stereo partly drawn) [6,14-Diacetyl oxycodone, 6,14-bis-acetyl Oxycodone]
hydrolysis products (in words) [1]: hydrolyzes to create additional 6-acetyl oxycodone and 14-acetyl oxycodone

COc1ccc2c3c1OC1C(OC(C)=O)=CCC4[C@@H](C2)N(C)CC[C@]314 (stereo partly drawn) [6-acetyl hydrocodone]
hydrolysis in human blood serum (in words) [2]: hydrolyzed quickly
% hydrolyzed to hydrocodone ([2]; 30 minutes): 99%
% hydrolyzed to hydrocodone ([2]; five minutes): 70%

COc1ccc2c3c1OC1C(=O)CCC4(OC(C)=O)C(C2)N(C)CCC314 (stereo not drawn) [14-acetyl oxycodone]
% Response Agonist ([3]; Conc. 3 μM, criteria ≥± 50%): 79%
functional profile at μ-opioid receptor (in words) [3]: μ-receptor agonist as effective as oxycodone

CCCCCCCCCCCC(=O)O[C@@]12CCC(=O)C3Oc4c(OC)ccc5c4[C@@]31CCN(C)[C@@H]2C5 (stereo partly drawn) [14-lauroyl oxycodone]
% Response Agonist ([3]; Conc. 100 μM, criteria ≥± 50%): 56%
% Response Antagonist ([3]; Conc. 100 μM, criteria ≥± 50%): 56%
functional profile at μ-opioid receptor (in words) [3]: partial agonist and a partial antagonist

Reference: patent publication US11845759B2, “Opioid compounds and uses thereof” (priority 2018, dated 2023)
